pIC50: −log10 of the molar value.

In the experiment the target is T1, human renin (Homo sapiens, UniProt P00797).
T1 sequence (P00797 67-406): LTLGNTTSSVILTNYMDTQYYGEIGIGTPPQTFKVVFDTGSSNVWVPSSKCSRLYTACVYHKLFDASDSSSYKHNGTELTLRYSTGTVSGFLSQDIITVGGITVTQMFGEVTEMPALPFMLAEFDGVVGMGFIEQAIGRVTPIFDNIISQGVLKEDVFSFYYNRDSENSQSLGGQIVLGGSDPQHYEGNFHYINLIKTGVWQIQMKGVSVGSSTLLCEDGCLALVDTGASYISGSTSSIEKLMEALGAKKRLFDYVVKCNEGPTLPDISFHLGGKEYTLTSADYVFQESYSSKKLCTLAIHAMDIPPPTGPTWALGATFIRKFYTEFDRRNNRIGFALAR
Put plainly: Determination of renin IC50 by tGFP FRET assay. The experiment is classed as biochemical. Conditions: Human recombinant renin, tandem GFP substrate 650 nM, 60 min incubation with compound, pH 7.4, 11-point curve. In a few lines:
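Human recombinant renin (final 50.4 μIU) preincubated 60 min with compound (5% DMSO final) in 50 mM HEPES, 1 mM EDTA, 1% PEG 8000, 1 mM DTT, 0.1% BSA, pH 7.4, then tandem-GFP substrate added at 650 nM final. FRET fluorescence read; IC50 from 11-point curves spanning 100 μM–1 pM.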
For `COc1ccccc1COCCCOc1ccc(N2C(=O)CNC[C@@H]2COCc2ccc(F)c(C)c2)cc1` [Example 27, (6R)-6-(4-fluoro-3-methylbenzyloxymethyl)-1-{4-[3-(2-methoxybenzyloxy)-propoxy]-phenyl}-piperazin-2-one], the pIC50 was less than 6.00.
For the compound `COc1ccccc1COCCCOc1ccc(N2C(=O)CNC[C@@H]2COCc2ccccc2C)cc1` [Example 21, (6R)-1-{4-[3-(2-methoxybenzyloxy)-propoxy]-phenyl}-6-(2-methylbenzyloxymethyl)-piperazin-2-one], the pIC50 is less than 6.00.
In the case of `COc1ccccc1COCCCOc1ccc(N2C(=O)CNC[C@@H]2COc2ccc3ccccc3c2)cc1` [Example 37, (6R)-1-{4-[3-(2-methoxybenzyloxy)-propoxy]-phenyl}-6-(naphthalen-2-yloxymethyl)-piperazin-2-one], the pIC50 is 7.27.
Then `COc1ccc(COC[C@H]2CNCCN2c2ccc(OCc3ccccc3)cc2)cc1` [Example 36, (2R)-1-(4-benzyloxyphenyl)-2-(4-methoxybenzyloxymethyl)-piperazine], with less than 6.00.
As to `COc1ccccc1COCCCOc1ccc(N2C(=O)CNC[C@@H]2COc2ccc(C(=O)N(C)C)cc2)cc1` [Example 95, 4-([2R]-1-{4-[3-(2-methoxybenzyloxy)-propoxy]-phenyl}-6-oxopiperazin-2-ylmethoxy)-N,N-dimethyl-benzamide], the pIC50 is 5.39.
As to `COc1ccccc1COCCCOc1ccc(N2C(=O)CNC[C@@H]2COCc2cccc(F)c2)cc1` [Example 18, (6R)-6-(3-fluorobenzyloxymethyl)-1-{4-[3-(2-methoxybenzyloxy)-propoxy]-phenyl}-piperazin-2-one], the pIC50 was less than 6.00.
For `COc1ccccc1COCCCOc1ccc(N2C(=O)CNC[C@H]2COCc2ccc(F)cc2)cc1` [Example 46, (6S)-6-(4-fluorobenzyloxymethyl)-1-{4-[3-(2-methoxybenzyloxy)-propoxy]-phenyl}-piperazin-2-one], the pIC50 is 5.25.
Then `COc1ccccc1OCCCCOc1ccc(N2C(=O)CNC[C@@H]2COc2ccc3ccccc3c2)cc1` [Example 73, (6R)-1-{4-[4-(2-methoxyphenoxy)-butoxy]-phenyl}-6-(naphthalen-2-yloxymethyl)-piperazin-2-one], with 5.76.
With `COC(=O)CN1CCCc2ccc(OC[C@H]3CNCC(=O)N3c3ccc(OCCCOCc4ccccc4OC)cc3)cc21` [Example 110, {7-[(2R)-1-{4-[3-(2-Methoxybenzyloxy)-propoxy]-phenyl}-6-oxopiperazin-2-ylmethoxy]-3,4-dihydro-2H-quinolin-1-yl}-acetic acid methyl ester], the pIC50 is 8.39.
With `COc1ccccc1COCCCOc1ccc(N2C(=O)CNC[C@@H]2COCc2ccccc2Cl)cc1` [Example 14, (6R)-6-(2-chlorobenzyloxymethyl)-1-{4-[3-(2-methoxybenzyloxy)-propoxy]-phenyl}-piperazin-2-one], the pIC50 is 6.65.
As for `CCOC(=O)CN1C(=O)COc2ccc(SC[C@H]3CNCC(=O)N3c3ccc(OCCCOCc4ccccc4OC)cc3)cc21` [Example 129, [6-([2R]-1-{4-[3-(2-Methoxybenzyloxy)-propoxy]-phenyl}-6-oxo-piperazin-2-ylmethylsulfanyl)-3-oxo-2,3-dihydro-benzo[1,4]oxazin-4-yl]-acetic acid ethyl ester], the negative logarithm of the IC50 (pIC50) was 9.77.
Turning to `COc1ccccc1COCCCOc1ccc(N2C(=O)CNC[C@@H]2COCc2ccc(Br)cc2)cc1` [Example 30, (6R)-6-(4-bromobenzyloxymethyl)-1-{4-[3-(2-methoxybenzyloxy)-propoxy]-phenyl}-piperazin-2-one], the pIC50 is less than 6.00.
Then `COc1ccccc1CSCCCOc1ccc(N2CCNC[C@@H]2COc2ccc3ccccc3c2)cc1` [Example 102, (2R)-1-{4-[3-(2-methoxybenzylsulfanyl)-propoxy]-phenyl}-2-(naphthalene-2-yloxymethyl)-piperazine], with less than 6.00; and `COC(=O)Cn1c(C)cc2cc(OC[C@H]3CNCC(=O)N3c3ccc(OCCCOCc4ccccc4OC)cc3)ccc21` [Example 121, [5-([2R]-1-{4-[3-(2-Methoxybenzyloxy)-propoxy]-phenyl}-6-oxopiperazin-2-ylmethoxy)-2-methyl-indol-1-yl]-acetic acid methyl ester], with 8.22.
On to `COc1ccccc1COCCCOc1ccc(N2C(=O)CNC[C@@H]2COc2ccc3ccccc3n2)cc1` [Example 77, (6R)-1-{4-[3-(2-methoxybenzyloxy)-propoxy]-phenyl}-6-(quinolin-2-yloxymethyl)-piperazin-2-one], for which the pIC50 was 4.88.
Take `COc1ccccc1COCCOCc1ccc(N2CCNC[C@@H]2COc2ccc3ccccc3c2)cc1` [Example 94, (2R)-1-{4-[2-(2-methoxybenzyloxy)-ethoxymethyl]-phenyl}-2-(naphthalene-2-yloxymethyl)-piperazine]: the pIC50 is 5.59.
Then `COc1ccccc1COCCCOc1ccc(N2C(=O)CNC[C@@H]2COc2ncccn2)cc1` [Example 81, (6R)-1-{4-[3-(2-methoxybenzyloxy)-propoxy]-phenyl}-6-(pyrimidin-2-yloxymethyl)-piperazin-2-one], with 4.47.
Take `COc1ccccc1COCCCOc1ccc(N2C(=O)CNC[C@@H]2COCc2ccc(C(F)(F)F)cc2)cc1` [Example 13, (6R)-1-{4-[3-(2-methoxybenzyloxy)-propoxy]-phenyl}-6-(4-trifluoromethylbenzyloxymethyl)-piperazin-2-one]: the pIC50 is 7.17.
Then `COc1ccccc1COCCCOc1ccc(N2C(=O)CNC[C@@H]2COC(=O)c2ccc3ccccc3c2)cc1` [Example 58, naphthalene-2-carboxylic acid (2R)-1-{4-[3-(2-methoxybenzyloxy)-propoxy]-phenyl}-6-oxopiperazin-2-yl methyl ester], with less than 6.00; and `COc1ccc(COC[C@H]2CNCCN2c2ccc(OCCCOCc3ccccc3Cl)cc2)cc1` [Example 66, (2R)-1-{4-[3-(2-chlorobenzyloxy)-propoxy]-phenyl}-2-(4-methoxybenzyloxymethyl)-piperazine], with 4.80.
For `COc1ccccc1COCCCOc1ccc(N2C(=O)CNC[C@@H]2COCc2ccc(F)cc2C(F)(F)F)cc1` [Example 19, (6R)-6-(4-fluoro-2-trifluoromethylbenzyloxymethyl)-1-{4-[3-(2-methoxybenzyloxy)-propoxy]-phenyl}-piperazin-2-one], the pIC50 was less than 6.00.
As to `COc1ccc(COC[C@H]2CNCCN2c2ccc(OCCCOCc3cccc(OC)c3)cc2)cc1` [Example 69, (2R)-2-(4-methoxybenzyloxymethyl)-1-{4-[3-(3-methoxybenzyloxy)-propoxy]-phenyl}-piperazine], the pIC50 is 4.81.
Take `COc1ccccc1COCCCOc1ccc(N2C(=O)CNC[C@@H]2COc2cccc(-c3ccccc3)c2)cc1` [Example 106, (6R)-6-(biphenyl-3-yloxymethyl)-1-{4-[3-(2-methoxybenzyloxy)-propoxy]-phenyl}-piperazin-2-one]: the pIC50 is 5.82.
As for `COC(=O)CCN1CCCc2ccc(OC[C@H]3CNCC(=O)N3c3ccc(OCCCOCc4ccccc4OC)cc3)cc21` [Example 122, 3-[7-([2R]-1-{4-[3-(2-Methoxybenzyloxy)-propoxy]-phenyl}-6-oxopiperazin-2-ylmethoxy)-3,4-dihydro-2H-quinolin-1-yl]-propionic acid methyl ester], the pIC50 is 9.44.

For orientation: pIC50 means the IC50 on a negative log10 scale, so that one unit is a factor of ten.

The values above are taken from patent publication US20040214832A1, “Piperazine derivative renin inhibitors” (priority 2003, published 2004).
